Data published in publication PMC8521518, “Nicotinamide Adenine Dinucleotide-Dependent Flavin Oxidoreductase of Mycoplasma hyopneumoniae Functions as a Potential Novel Virulence Factor and Not Only as a Metabolic Enzyme” (Frontiers in Microbiology, 2021).

Target: T1, rNFOR (Mhp NFOR, NADH-dependent flavin oxidoreductase) (Mesomycoplasma hyopneumoniae, UniProt E4QSY0)
T1 construct: gene baiH; 44 kDa on gel
Assay: NADH oxidation
Type: biochemical
Settings: 0.5 mM NADH, 10 uM FMN (5 min preincubation), 0.1 M potassium phosphate pH 7.5, 1 mM DTT, 25 C

T1 sequence (E4QSY0 entry or part of it): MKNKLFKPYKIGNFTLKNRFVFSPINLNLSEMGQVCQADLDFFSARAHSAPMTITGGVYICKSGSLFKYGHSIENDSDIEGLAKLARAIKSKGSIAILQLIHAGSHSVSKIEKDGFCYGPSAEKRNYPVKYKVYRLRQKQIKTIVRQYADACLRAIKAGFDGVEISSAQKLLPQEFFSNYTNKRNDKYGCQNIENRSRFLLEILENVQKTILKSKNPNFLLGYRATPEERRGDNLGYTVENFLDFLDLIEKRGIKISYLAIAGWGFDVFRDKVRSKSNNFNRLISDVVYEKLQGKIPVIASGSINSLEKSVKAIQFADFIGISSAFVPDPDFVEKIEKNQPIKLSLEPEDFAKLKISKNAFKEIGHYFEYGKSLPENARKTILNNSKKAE

NC(=O)C1=CN([C@@H]2O[C@H](COP(=O)(O)OP(=O)(O)OC[C@H]3O[C@@H](n4cnc5c(N)ncnc54)[C@H](O)[C@@H]3O)[C@@H](O)[C@H]2O)C=CC1 [NADH]
NADH oxidation, absorbance at 340 nm: enzymatic activity of purified rNFOR was determined by calculating the oxidation of NADH to NAD^+
